Patent US12404260B2, “Pyridine rings containing derivatives as MALT1 inhibitors” (Janssen Pharmaceutica NV, priority 2019, dated 2025)

Assays:
[1] = biological target: T1, full-length MALT1 protein (Strep-MALT1(1-824)-His) (Homo sapiens, UniProt Q9UDY8); assay: MALT1 Biochemical Protease Assay; conditions: 10 nM FL MALT1, 200 μM Ac-LRSR-AMC, 50 min pre-incubation, 4 h at RT; read-out: MALT1_Biochemical activity (Ac-LRSR-amc) IC50
T1 construct: full-length MALT1 protein (Strep-MALT1(1-824)-His) purified from baculovirus-infected insect cells; Strep (N); His (C); made in house; host or cells: baculovirus-infected insect cells
T1 sequence (Q9UDY8 1-824): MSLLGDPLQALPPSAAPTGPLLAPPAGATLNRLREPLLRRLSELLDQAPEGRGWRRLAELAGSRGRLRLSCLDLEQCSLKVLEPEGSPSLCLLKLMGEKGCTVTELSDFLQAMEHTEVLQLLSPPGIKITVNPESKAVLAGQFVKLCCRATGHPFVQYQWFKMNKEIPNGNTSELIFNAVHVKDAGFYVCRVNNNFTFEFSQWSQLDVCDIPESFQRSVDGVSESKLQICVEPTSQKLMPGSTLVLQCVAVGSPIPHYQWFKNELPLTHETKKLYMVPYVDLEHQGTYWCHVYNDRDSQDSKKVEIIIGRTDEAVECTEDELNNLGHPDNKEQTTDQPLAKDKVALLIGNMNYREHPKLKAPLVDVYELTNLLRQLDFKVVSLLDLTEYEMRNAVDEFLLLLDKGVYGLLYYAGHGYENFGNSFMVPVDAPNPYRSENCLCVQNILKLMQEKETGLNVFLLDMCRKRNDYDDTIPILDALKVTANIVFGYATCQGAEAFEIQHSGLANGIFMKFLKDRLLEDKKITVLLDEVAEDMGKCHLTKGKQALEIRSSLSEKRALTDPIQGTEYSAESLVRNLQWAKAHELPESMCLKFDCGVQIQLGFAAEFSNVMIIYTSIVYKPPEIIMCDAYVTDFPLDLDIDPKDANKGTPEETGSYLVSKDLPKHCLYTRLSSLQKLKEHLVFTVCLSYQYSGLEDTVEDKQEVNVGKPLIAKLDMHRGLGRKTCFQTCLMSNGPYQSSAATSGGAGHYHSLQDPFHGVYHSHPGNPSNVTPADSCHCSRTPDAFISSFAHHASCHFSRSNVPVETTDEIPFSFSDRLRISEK
How it was run: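 Full-length Strep-MALT1(1-824)-His from baculovirus-infected insect cells, 10 nM, preincubated with compound 50 min at RT; 200 μM Ac-LRSR-AMC (KM) in 50 mM Tris pH 7.5, 0.6 M citrate, 1 mM DTT, 1 mM EDTA, 0.05% BSA, 1.5% DMSO. Fluorescence 355/460 nm, 4 h minus time 0; 11-point 1:3 series 30 μM–0.5 nM, IC50 with Hill slope.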

[2] = test system: secretion of IL10 by OCI-LY3 ABC-DLBCL cells; assay: Human IL10 Mesoscale assay (OCI-LY3); format: cell-based; conditions: 24 h incubation, IL10 in supernatant
How it was run: (§1)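 OCI-LY3 cells (100,000/well) treated 24 h at 37° C with compounds, 9-point 1:2 dilutions from 15 μM to 58.6 nM (0.3% DMSO). Supernatant IL6 and IL10 quantified by Mesoscale electrochemiluminescence immunoassay; DMSO defined maximum signal, BTK inhibitor RN486 defined maximum inhibition.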

[3] = test system: secretion of IL6 by OCI-LY3 ABC-DLBCL cells; assay: Human IL6 Mesoscale assay (OCI-LY3); format: cell-based; conditions: 24 h incubation, IL6 in supernatant
How it was run: as §1

Row | SMILES | IC50 [1] [nM] | IC50 [2] [nM] | IC50 [3] [nM] | IC50 ([2]; Homo sapiens) [nM] | IC50 ([3]; Homo sapiens) [nM]
1 | CO[C@@H](C)c1c(NC(=O)Nc2cnc(C3CC3)c(C(F)(F)F)c2)cnc(C)c1Br [Co. 53] | > 30200 | > 15000 | > 15000 | – | –
2 | COC(C)c1c(Br)c(C)nc(C)c1NC(=O)Nc1cnc(-n2nccn2)c(Cl)c1 (racemic) [Co. 49] | 620 | 1700 | 2340 | – | –
3 | COC(C)c1c(NC(=O)Nc2cnc(-n3nccn3)c(C(F)(F)F)c2)cnc(C(F)F)c1C#N (single isomer, unassigned) [Co. 128] | 230 | 210 | 460 | – | –
4 | COC(C)c1c(C#N)cncc1NC(=O)Nc1cnc(-n2nccn2)c(Cl)c1 (stereo not drawn) [Co. 25] | 240 | 180 | 220 | – | –
5 | COC(C)c1c(NC(=O)Nc2cnc(-n3ncc(C(C)O)n3)c(Cl)c2)cnc(C)c1C#N (single isomer, unassigned) [Co. 114] | 60 | 170 | 400 | – | –
6 | COC(C)c1c(NC(=O)Nc2cnc(C3CC3)c(C(F)(F)F)c2)cnc(C)c1Cl (single isomer, unassigned) [Co. 68] | > 30200 | > 15000 | > 15000 | – | –
7 | CO[C@H](C)c1c(NC(=O)Nc2cnc(-n3nccn3)c(C(F)(F)F)c2)cnc(C)c1Br [Co. 58] | 200 | 300 | 760 | – | –
8 | CO[C@@H](C)c1c(NC(=O)Nc2ccnc(C(F)(F)F)c2)cnc(C)c1C#N (single isomer, unassigned) [Co. 149] | 2880 | – | – | 1320 | 1910
9 | CO[C@@H](C)c1c(NC(=O)Nc2cnc(-n3nccn3)c(C(F)(F)F)c2)cnc(C(F)F)c1Br (single isomer, unassigned) [Co. 147] | 560 | – | – | 660 | 850
10 | CO[C@H](C)c1c(Cl)cncc1NC(=O)Nc1cnc(-n2nccn2)c(Cl)c1 [Co. 23] | 110 | – | – | 120 | 180
11 | COc1nc(-n2nccn2)c(C(F)(F)F)cc1NC(=O)Nc1cnc(NC(C)(C)C)c(Br)c1C(C)OC (stereo not drawn) [Co. 151] | > 30000 | – | – | > 15000 | > 15000

Further molecules by falling IC50 [1], results first:

Row | IC50 [1] [nM] | IC50 [2] [nM] | IC50 [3] [nM] | IC50 ([2]; Homo sapiens) [nM] | IC50 ([3]; Homo sapiens) [nM] | SMILES
12 | 3240 | 8130 | 11000 | – | – | CCOC(=O)COc1cncc(NC(=O)Nc2cnc(-n3nccn3)c(Cl)c2)c1C(C)OC (racemic) [Co. 14]
13 | 1020 | 710 | 1450 | – | – | CO[C@H](C)c1c(NC(=O)Nc2cnc(C3CC3)c(C(F)(F)F)c2)cnc(C)c1Br [Co. 52]
14 | 680 | 480 | 870 | – | – | CO[C@H](C)c1c(NC(=O)Nc2cnc(-n3nccn3)c(C(F)(F)F)c2)cnc(C)c1Cl [Co. 112]
15 | 600 | 1100 | 1950 | – | – | COC(C)c1c(NC(=O)Nc2cnc(-n3nccn3)c(Cl)c2)cncc1C1CC1 (racemic) [Co. 28]
16 | 580 | 850 | 750 | – | – | CO[C@@H](C)c1c(NC(=O)Nc2cnc(-n3nccn3)c(Cl)c2)cnc(C)c1Br [Co. 46]
17 | 480 | 1510 | 2750 | – | – | CO[C@@H](C)c1c(NC(=O)Nc2cnc(-n3nccn3)c(Cl)c2)cnc(N)c1Br [Co. 118]
18 | 210 | 150 | 240 | – | – | CO[C@@H](C)c1c(NC(=O)Nc2cnc(-n3nccn3)c(C(F)(F)F)c2)cnc(C)c1C#N [Co. 101]
19 | 100 | 170 | 290 | – | – | CO[C@H](C)c1c(NC(=O)Nc2cc(Cl)c(-n3nccn3)nc2C)cnc(C)c1C#N [Co. 88]
20 | 100 | 190 | 100 | – | – | COC(C)c1c(Br)cncc1NC(=O)Nc1cnc(-n2nccn2)c(Cl)c1 (single isomer, unassigned) [Co. 18]
21 | 60 | – | – | 140 | 130 | COc1cncc(NC(=O)Nc2cc(Cl)c(-n3nccn3)nc2OC)c1[C@H](C)OC (single isomer, unassigned) [Co. 141]
22 | 50 | – | – | 60 | 150 | [2H]C([2H])([2H])O[C@H](C)c1c(NC(=O)Nc2cnc(-n3nccn3)c(C(F)(F)F)c2)cncc1OC (single isomer, unassigned) [Co. 132]
23 | 50 | 90 | 150 | – | – | COc1nc(-n2nccn2)c(Cl)cc1NC(=O)Nc1cnc(C)c(C#N)c1[C@H](C)OC [Co. 80]
24 | 30 | 50 | 100 | – | – | COc1nc(-n2nccn2)c(Cl)cc1NC(=O)Nc1cnc(C)c(Br)c1[C@@H](C)OC [Co. 85]
